Values joined by “and” are separate entries in the source; they are usually repeats but may differ in a detail not shown here. Equal values may be shown once. Read-outs that look alike come from different tables or passages of the source.
Legend:
[1] = test system: P. berghei liver stage parasites; experiment: P. berghei liver stage parasite size and number (fluorescence microscopy, coverslips); format: cell-based, Plasmodium berghei; conditions: for Normalised mean size of liver stage parasites, percentage of the solvent control: per coverslip, source data Fig. 3C
Description: Uninfected wells served as a control for background luminescence. […] No other manipulations were performed.
(§1) Appendix Fraser/Curtis et al.
For measurement of parasite size and number, 20,000 Huh7 cells were seeded onto collagen-coated coverslips on the day prior to infection. As above, 10,000 – 20,000 sporozoites were added per slide, allowed to invade for 60 minutes after centrifugation, and then incubated for […]
Infected cells were fixed with 3% paraformaldehyde in PBS, permeabilized with 0.3% v/v Triton X-100, and labelled with 1:1,000 polyclonal chicken anti-GFP (Abcam ab13970), 1:2,000 goat anti-chicken Alexa […]
intrinsic GFP fluorescence could be detected, as well as Fluoromount-G® containing 4′,6-diamidino-2-phenylindole (DAPI; Southern Biotech), to stain parasite and host cell nuclei.
Images were collected on a Zeiss Axio Observer Z2 microscope with a Zeiss AxioCam MRm at 200× or 400× (for quantification) or 630× (for cell images) magnification, with a resolution of […], 163 nm or 102 nm per pixel respectively. Alexa Fluor™ 546 fluorescence was detected at 546/13 nm excitation and 675/35 nm emission. […]
fluorescence was detected at 470/20 nm excitation and 525/25 nm emission. DAPI fluorescence (nucleic acid) was detected at 359/24 nm ex and 445/25 nm em. For quantification, all cells on each coverslip were imaged under the same settings for each experiment. P. berghei liver stage size was measured as described (24) using Fiji ImageJ (25). Liver-stage parasites were identified and delineated in fluorescent images using defined threshold levels, and the identified fluorescent areas were used to measure parasite area. The number of parasites on each coverslip was also counted. […]
manipulations were performed.

[2] = Human hepatoma viability assay (CellTiter-Blue); format: cell-based; conditions: human, replicate data points, read-out: Huh7 viability, dose-response data points (Figure 3F); for viability at 48 h, 0.137174 µM: 0.137174210 uM
Outline: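 Huh7 cells (10,000/well) were seeded and treated the next day with serially diluted compound or DMSO, with media partially renewed with fresh dilutions over two days.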

[3] = test system: P. falciparum CAM3.IIREV ring stages (0–3 h post invasion); experiment: Plasmodium falciparum ring stage survival assay, susceptible revertant strain; format: cell-based
Description: Following tight synchronisation using sorbitol and Percoll® floatation, ring stage CAM3.II and CAM3.IIREV parasites (0–3 h post invasion) at 1% parasitaemia and 2% haematocrit were incubated with 700 nM of compounds or solvent-only controls for exactly 6 h, before removing the drug, thoroughly washing in RPMI with HEPES, and returning to culture conditions for a further 66 h. Some cells were treated with 700 nM artesunate for 72 h as a no-growth control. DNA replication (indicating growth) was measured at the specified time using SYBR Safe DNA Stain. Microscope slide smears of each condition were stained with 10% v/v Giemsa and examined under a light microscope (×1000 magnification); with ‘viable’ (morphologically normal) and ‘non-viable’ (morphologically aberrant; vacuolated or pyknotic) parasites distinguished according to standard protocol (Witkowski et al, [2013]). Images were captured using a Leica ICC50 camera, with a resolution of 76 nm per pixel, and cropped from larger images using Fiji ImageJ.
as §1
Cells were detached from a flask using 0.25% Trypsin with 0.2 g/L EDTA (Sigma T4049) and washed with culture media containing no phenol red. Cells were incubated with a serial dilution of each compound, or media/DMSO alone. The protein synthesis inhibitor cycloheximide (Sigma 01810) at 10 µg/mL was used as a positive control to determine background absorbance. 5,000 cells were seeded in each well. After 96 hours, 0.45 mg/mL methylthiazolyldiphenyl-tetrazolium bromide (MTT; Sigma M2128) was added and incubated for a further two hours, before mixing 1.1:1 with 10% w/v sodium dodecyl sulfate (SDS) to solubilise crystals and freezing the plate at -18 °C to stop the assay. Plates were defrosted at room temperature and absorbance was read at 570 nm in an Infinite M1000 pro plate reader […]
Plasmodium falciparum Ring Stage Survival Assay
Ring stage survival assays were conducted according to standard protocols with some modifications (27, 28). CAM3.11 and CAM3.11REV parasites were sorbitol synchronised twice, 12 hours apart, and then incubated for a further 30 hours until the majority of the parasites were mature schizonts (with clearly separated nuclei). Pelleted RBCs were incubated at 37 °C with heparinised RPMI for 15 minutes, and then centrifuged over 75% Percoll® in PBS for 15 minutes at 1,000 g. Mature schizonts were collected, washed with warm RPMI, and cultured for exactly three hours with fresh uRBCs and culture media. After 3 hours, the cultures were sorbitol synchronised and incubated in duplicate with 700 nM of artesunate, PAYb076a, GGA5, HJB8a53, a DMSO solvent-only control or media alone for exactly six hours, before removing the drug, washing in RPMI, and returning to culture conditions. Samples of each cell suspension were transferred to a -18 °C freezer at the start of the assay (time = 0) or treated for the entire 72 hours with 700 nM artesunate to determine background fluorescence under no-growth conditions. After a further 66 hours of incubation (totalling 72 hours), cells were […]
resuspended, and a sample from each well was transferred to a fresh plate and frozen at -18 °C.
Microscope slide smears were made using the remaining cells and stained with 10% v/v Giemsa. Plates were thawed and SYBR Safe DNA Gel Stain (final concentration 1/10,000) diluted in lysis buffer (as above) was added for DNA detection at 490 nm excitation / 520 nm emission on a FLUOstar Optima fluorescence plate reader. Parasite proliferation and viability were also assessed using Giemsa-stained smears examined under a light microscope (1,000× magnification); with ‘viable’ and ‘non-viable’ (vacuolated or pyknotic) parasites distinguished according to standard protocol. Images were captured using a Leica ICC50 camera, with a resolution of 76 nm per pixel.
Growth inhibition data were normalised by subtracting background fluorescence, […]

In the case of COc1cc(NC(C)CCCNC(=O)CCC(=O)O[C@H]2CC[C@H]3[C@@H]4CC=C5C[C@@H](O)CC[C@]5(C)[C@H]4CC[C@]23C)c2ncccc2c1 (stereo partly drawn) [C-17-PQ], the “Reduction of parasite size (area) compared to untreated parasites” value (“Reduction of parasite size (area)” below) ([1]; 0.3 µM, 48 h) is reported as 48%, the “Normalised mean size of liver stage parasites, percentage of the solvent control” value ([1]; 0.3 μM, 48 h, listed as BC5B) is reported as 47.88% and 39.55% and 51.73% and 68.26% and 63.53% and 38.56% and the “Reduction of parasite size (area)” value ([1]; 3 µM, 48 h) is reported as 90%. For the same molecule, the “Parasite number per coverslip compared to the same concentration of primaquine” value ([1]; 0.3 or 3 µM, 48 h) was “significantly lower”, the viability at 48 h, 0.0152416 µM ([2]; 0.015241580 uM) was 94.8% and the viability at 48 h, 0.0457247 µM ([2]; 0.045724740 uM) was 94.9%. For the same molecule, the viability at 48 h, 0.137174 µM [2] was 95.3% and the viability at 48 h, 0.411523 µM ([2]; 0.411522630 uM) was 94.5%.

With COc1cc(NC(C)CCCN)c2ncccc2c1 (stereo not drawn) [Primaquine, primaquine, reference compound] the “Reduction of parasite size (area)” value ([1]; 0.3 µM, 48 h) was “not at 0.3 µM”, the “Normalised mean size of liver stage parasites, percentage of the solvent control” value ([1]; 0.3 μM, 48 h) was 100% and 99.34% and 108% and 106.3% and 110.6% and 86.33% and the “Figure 3C - Individual Data Points (P. berghei liver stage parasite size, individual parasites)” value ([1]; 0.3 μM, Assay 2, first replicate column, individual data points) was 43.02 and 107.9 and 92.89 and 48.67 and 95.55 and 31.33 and 39.11 and 132.2 and 73.2 and 29.42. The “Reduction of parasite size (area)” value ([1]; 3 µM, 48 h) was 61%.

With COc1cc(NC(C)CCCNC(=O)CCC(=O)OC(C)C)c2ncccc2c1 (stereo not drawn) [PQ-link] the viability at 48 h, 0.137174 µM ([2]; Huh7 hepatoma cells) was 99.3%.

In the case of CC(C)OC(=O)CCC(=O)O[C@H]1CC[C@H]2[C@@H]3CC=C4C[C@@H](O)CC[C@]4(C)[C@H]3CC[C@]12C [C-17-link], the “Ring stage survival, growth” value ([3]; 700 nM, 6 h treatment, 66 h further growth, CAM3.IIREV susceptible) is reported as “did not significantly impact the growth” and the “Ring stage survival, individual data points (Figure 4C)” value ([3]; CAM3.11REV, replicate experiments, listed as HJB8a53) is reported as 98.68 and 105.5 and 54.94 and 92.61.

Source: paper PMC11251039, “Harnessing cholesterol uptake of malaria parasites for therapeutic applications” (EMBO Molecular Medicine, 2024)
